The values below come from US7084141B2, “Inhibitors of macrophase migration inhibitory factor and methods for identifying the same” (Avanir Pharmaceuticals, priority 2001, dated 2006).

The target of one assay is T1, MIF (Homo sapiens, UniProt P14174).
T1 sequence (P14174 2-115 limits assumed): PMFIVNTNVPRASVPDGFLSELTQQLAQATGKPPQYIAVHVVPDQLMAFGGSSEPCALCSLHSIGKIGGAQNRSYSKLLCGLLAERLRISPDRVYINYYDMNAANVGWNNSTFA
Description: Immunoprecipitation of MIF from conditioned media of LPS treated THP-1 cells with monoclonal or polyclonal antibody. Format: cell-based. Conditions: 10 μM compound; LPS 10 μg/ml; not observed with polyclonal antibody. Here is the method: Cell culture experiments were designed to characterize the activity of candidate compounds, MIF expression, trafficking, and export. Cell and conditioned medium fractions are prepared for immunoprecipitation essentially as described previously (Florkiewicz et al., Growth Factors 4:265–275, 1991; Florkiewicz et al., Ann. N.Y. Acad. Sci. 638:109–126) except that 400 μl of lysis buffer (1% NP-40, 0.5% deoxycholate, 20 mM Tris pH 7.5, 5 mM EDTA, 2 mM EGTA, 0.01 mM phenylmethylsufonyl fluoride, 10 ng/ml aprotinin, 10 ng/ml leupeptin, 10 ng/ml peptstatin) is added to the medium fraction after clarification by centrifugation in a microfuge for 15 minutes. Cell or medium fractions are incubated with monoclonal or polyclonal antibodies to MIF and GammaBind™ G Sepharose® (Pharmacia LKB Biotechnology, Uppsala, Sweden) was added for an additional 30 minutes incubation. Immune complexes are sedimented by microfuge centrifugation, washed three times with lysis buffer, and four times with ice cold immunoprecipitation wash buffer (0.15M NaCl, 0.01 M Na-phosphate pH 7.2, 1% deoxycholate, 1% NP-40, 0.1% sodium dodecyl sulfate). Immune complexes are dissociated directly in SDS gel sample buffer 125 mM Tris, pH 6.8, 4% SDS, 10% glycerol, 0.004% bromphenol blue, 2 mM EGTA, and separated by 12% SDS-PAGE. The gel is processed for fluorography, dried, and exposed to X-ray film at −70° C. […]

A further assay has as its system serum TNF-α. Description: Collagen induced arthritis model, serum TNF-α (ELISA). Conditions: day 74, compared to untreated CIA samples. It is filed as in vivo, mouse. The method, then: In another experiment, fifteen DBA/1J mice, age 10–12 weeks were immunized on day 0 at the base of the tail with bovine collagen type II (CII 100 μg), emulsified in Freunds complete adjuvant (FCA; GibcoBRL). On day 21, a second dose of collagen was administered via the same route, emulsified in Freunds incomplete adjuvant. On day 28 the mice were injected subcutaneously with 100 μg of LPS (055:B5). On day 71 the mice were injected i.p. with 40 μg LPS (0111:B4). Groups and treatment protocol were the same as described as above. On day 74 blood samples were collected and cytokines were measured.

For `Cn1c(=O)c([N+](=O)[O-])c(N2CCN(C(=O)c3ccco3)CC2)c2ccccc21` [compound 7e], the “detectable MIF in conditioned media using the monoclonal antibody” value on MIF is listed as “significant loss of detectable MIF”. In the assay with serum TNF-α, the “serum TNF-α levels” value was “more significant inhibition of serum TNF-α levels”.
